The text below walks through data of ChEMBL document CHEMBL3112450, “Synthesis and in vitro antitumor evaluation of primary amine substituted quinazoline linked benzimidazole” (Bioorg Med Chem Lett, 2014).

Common to all, as to type: functional
Experiment [1] can be described thus: Cytotoxicity against human OVCAR5 cells assessed as growth inhibition at 10 uM after 48 hrs by SRB assay. As to conditions: OVCAR-5, 48 h, read-out: GI. On the technique in general: The SRB assay estimates cell density from bound dye.
In experiment [2] the test system is NCI-H226. In words: Cytotoxicity against human NCI-H226 cells assessed as growth inhibition at 10 uM after 48 hrs by SRB assay. The note with it: NCI-H226, 48 h, read-out: GI.
Experiment [3] has as its system SK-MEL-2. In words: Cytotoxicity against human SK-MEL-2 cells assessed as growth inhibition at 10 uM after 48 hrs by SRB assay. The note with it: SK-MEL-2, 48 h, read-out: GI.
Experiment [4] relates to IGROV-1. In words: Cytotoxicity against human IGROV1 cells assessed as growth inhibition at 10 uM after 48 hrs by SRB assay. As to conditions: IGROV-1, 48 h, read-out: GI.
The subject of experiment [5] is HL-60(TB). The experiment can be described thus: Cytotoxicity against human HL-60(TB) cells assessed as growth inhibition at 10 uM after 48 hrs by SRB assay. The note with it: HL-60, 48 h, read-out: GI.
Experiment [6] deals with SN12C. In words: Cytotoxicity against human SN12C cells assessed as growth inhibition at 10 uM after 48 hrs by SRB assay. The note with it: read-out: GI.
In experiment [7] the test system is RXF 393. In words: Cytotoxicity against human RXF393 cells assessed as growth inhibition at 10 uM after 48 hrs by SRB assay. As to conditions: RXF 393, 48 h, read-out: GI.
Experiment [8] concerns M14. In words: Cytotoxicity against human M14 cells assessed as growth inhibition at 10 uM after 48 hrs by SRB assay. The note with it: M14, 48 h, read-out: GI.
The subject of experiment [9] is CAKI-1. In words: Cytotoxicity against human Caki1 cells assessed as growth inhibition at 10 uM after 48 hrs by SRB assay. As to conditions: CAKI-1, 48 h, read-out: GI.
Experiment [10] concerns HCT-15. The experiment can be described thus: Cytotoxicity against human HCT15 cells assessed as growth inhibition at 10 uM after 48 hrs by SRB assay. As to conditions: HCT-15, 48 h, read-out: GI.
The test system of experiment [11] is NCI-H522. In words: Cytotoxicity against human NCI-H522 cells assessed as growth inhibition at 10 uM after 48 hrs by SRB assay. The note with it: NCI-H522, 48 h, read-out: GI.
Experiment [12] deals with U-251. In words: Cytotoxicity against human U251 cells assessed as growth inhibition at 10 uM after 48 hrs by SRB assay. The note with it: U-251, 48 h, read-out: GI.
Experiment [13] can be described thus: Cytotoxicity against human Hs578T cells assessed as growth inhibition at 10 uM after 48 hrs by SRB assay. As to conditions: Hs-578T, read-out: GI.
Experiment [14] deals with ACHN. In words: Cytotoxicity against human ACHN cells assessed as growth inhibition at 10 uM after 48 hrs by SRB assay. The note with it: read-out: GI.
Experiment [15] deals with SF-268. In words: Cytotoxicity against human SF268 cells assessed as growth inhibition at 10 uM after 48 hrs by SRB assay. As to conditions: SF-268, 48 h, read-out: GI.
For experiment [16], the system named is SK-MEL-28. The experiment can be described thus: Cytotoxicity against human SK-MEL-28 cells assessed as growth inhibition at 10 uM after 48 hrs by SRB assay. As to conditions: SK-MEL-28, 48 h, read-out: GI.
The subject of experiment [17] is NCI-H460. The experiment can be described thus: Cytotoxicity against human NCI-H460 cells assessed as growth inhibition at 10 uM after 48 hrs by SRB assay. The note with it: NCI-H460, 48 h, read-out: GI.
Experiment [18] has as its system UACC-62. In words: Cytotoxicity against human UACC62 cells assessed as growth inhibition at 10 uM after 48 hrs by SRB assay. As to conditions: UACC-62, 48 h, read-out: GI.

`C=CCn1c(C)nc2ccc(Nc3nc(Nc4ccc5nc(C)n(CC=C)c5c4)c4ccccc4n3)cc21`: the inhibition of growth at 10 µM in [1] came to 70%; in experiment [2], 30%.
Regarding `C=CCn1c(C)nc2ccc(Nc3nc(Nc4ccc(F)cc4)nc4ccccc34)cc21`, the inhibition of growth at 10 µM in [3] worked out at 40%; in experiment [4], 40%; in experiment [5], 40%; in experiment [6], 30%; in experiment [7], 30%; in experiment [8], 50%. Moreover, the inhibition of growth at 10 µM is 40% in experiment [9]; 50% in [10]; 40% in experiment [11]; 40% in experiment [12]; 40% in [13]; 30% in [14]. Further, the inhibition of growth at 10 µM in [15], in [16], in experiment [17] and in [18] was 30% each time.
